What was measured:
[1] = target: PI3K (Homo sapiens, UniProt P42336); experiment: Fluorescence polarization assay for PI3K; format: biochemical; conditions: PI3Kα; read-out: PI3Kα IC50;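 further: PI3K kinase reaction on PIP2 with ATP, 30-60 min, product sensed by GST-GRP with red probe in fluorescence polarization (mP), controls without enzyme and at zero time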
[2] = test system: breast line MDA468; experiment: In vitro cell culture growth assay (MTS), MDA468; format: cell-based, human; conditions: MDA468 cells, three days after drug treatment
In short: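 Steps: plate cells; add inhibitors the next day; incubate 3 days; add MTS dye, which viable cells convert metabolically; measure absorbance at 490 nm; calculate percent of control growth relative to vehicle-treated cells in the same plate.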

[3] = test system: prostate line LNCap; experiment: In vitro cell culture growth assay (MTS), LNCap; format: cell-based, human; conditions: LNCap cells, three days after drug treatment;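 further: viable cell density read by absorbance at 490 nm, growth expressed as percent of vehicle-treated cells on the same plate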

PI3K, sequence (P42336 whole entry): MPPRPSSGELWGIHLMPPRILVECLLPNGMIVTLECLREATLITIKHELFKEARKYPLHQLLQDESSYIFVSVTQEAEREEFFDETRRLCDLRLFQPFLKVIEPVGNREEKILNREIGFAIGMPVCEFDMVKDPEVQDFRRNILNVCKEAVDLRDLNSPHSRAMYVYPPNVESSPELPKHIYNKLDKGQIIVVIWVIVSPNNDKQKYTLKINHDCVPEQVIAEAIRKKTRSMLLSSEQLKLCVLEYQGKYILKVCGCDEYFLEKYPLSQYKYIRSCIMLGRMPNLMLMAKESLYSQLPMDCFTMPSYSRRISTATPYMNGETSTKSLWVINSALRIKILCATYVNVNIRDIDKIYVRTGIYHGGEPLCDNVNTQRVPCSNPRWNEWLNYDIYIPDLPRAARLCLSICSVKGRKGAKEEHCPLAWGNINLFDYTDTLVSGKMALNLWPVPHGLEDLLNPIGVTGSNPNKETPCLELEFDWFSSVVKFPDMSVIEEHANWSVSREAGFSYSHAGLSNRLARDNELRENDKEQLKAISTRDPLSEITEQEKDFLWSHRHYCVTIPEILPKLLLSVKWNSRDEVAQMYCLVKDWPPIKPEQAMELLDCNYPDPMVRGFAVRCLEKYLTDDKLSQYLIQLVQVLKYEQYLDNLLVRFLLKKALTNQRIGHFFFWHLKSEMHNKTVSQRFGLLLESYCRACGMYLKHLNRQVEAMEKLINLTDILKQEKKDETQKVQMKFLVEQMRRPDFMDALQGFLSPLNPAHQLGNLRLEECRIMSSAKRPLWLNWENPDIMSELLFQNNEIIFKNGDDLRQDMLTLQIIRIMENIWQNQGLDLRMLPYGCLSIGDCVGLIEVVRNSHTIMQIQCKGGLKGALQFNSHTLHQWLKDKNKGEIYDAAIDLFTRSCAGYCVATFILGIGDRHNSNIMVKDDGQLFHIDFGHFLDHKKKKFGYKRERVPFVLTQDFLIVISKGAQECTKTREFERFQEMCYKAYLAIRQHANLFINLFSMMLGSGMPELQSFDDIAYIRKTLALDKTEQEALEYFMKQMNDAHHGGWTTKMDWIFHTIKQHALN
PI3K, sequence (P27986 whole entry partner): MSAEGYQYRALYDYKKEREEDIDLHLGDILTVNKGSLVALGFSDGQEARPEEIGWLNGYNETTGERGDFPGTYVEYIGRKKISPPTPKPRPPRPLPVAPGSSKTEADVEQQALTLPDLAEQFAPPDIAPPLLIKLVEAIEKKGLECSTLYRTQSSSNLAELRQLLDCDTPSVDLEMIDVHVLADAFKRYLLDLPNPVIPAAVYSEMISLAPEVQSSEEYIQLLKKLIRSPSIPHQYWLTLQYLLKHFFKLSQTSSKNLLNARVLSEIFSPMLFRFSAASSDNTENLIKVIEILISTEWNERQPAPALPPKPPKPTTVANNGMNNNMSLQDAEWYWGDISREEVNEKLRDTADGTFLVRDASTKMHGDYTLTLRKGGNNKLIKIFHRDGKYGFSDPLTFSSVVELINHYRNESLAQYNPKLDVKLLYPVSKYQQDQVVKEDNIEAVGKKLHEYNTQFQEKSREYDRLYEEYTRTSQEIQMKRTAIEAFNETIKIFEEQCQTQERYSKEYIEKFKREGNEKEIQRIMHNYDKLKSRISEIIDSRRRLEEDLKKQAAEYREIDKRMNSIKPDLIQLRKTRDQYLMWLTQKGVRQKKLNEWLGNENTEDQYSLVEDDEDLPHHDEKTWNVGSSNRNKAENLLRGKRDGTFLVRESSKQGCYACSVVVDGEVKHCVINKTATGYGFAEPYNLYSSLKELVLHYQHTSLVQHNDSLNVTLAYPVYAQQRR

Structure (SMILES)	IC50 [1]	IC50 ([2]; Homo sapiens, 72 h)	IC50 ([3]; Homo sapiens, LNCaP, 72 h)	IC50 [2]	IC50 [3]
CCCOC(=O)N1CCC(n2ncc3c(N4CCOCC4)nc(-c4ccc(NC(=O)NC5CC5)cc4)nc32)CC1 [Compound 856, propyl 4-(6-{4-[(cyclopropylcarbamoyl)amino]phenyl}-4-morpholin-4-yl-1H-pyrazolo[3,4-d]pyrimidin-1-yl)piperidine-1-carboxylate]	770 nM	510 nM	90 nM		
CNCCNC(=O)Nc1ccc(-c2nc(N3CCOCC3)c3cnn(C4CCN(C(=O)c5ccccc5)CC4)c3n2)cc1 [Example 386, 1-{4-[1-(1-benzoylpiperidin-4-yl)-4-morpholin-4-yl-1H-pyrazolo[3,4-d]pyrimidin-6-yl]phenyl}-3-[2-(methylamino)ethyl]urea]	48 nM	1400 nM	1200 nM		
CCNC(=O)Nc1ccc(-c2nc(N3CCOCC3)c3cnn(C4CCN(Cc5cccnc5)CC4)c3n2)cc1 [Compound 563, 1-ethyl-3-(4-{4-morpholin-4-yl-1-[1-(pyridin-3-ylmethyl)piperidin-4-yl]-1H-pyrazolo[3,4-d]pyrimidin-6-yl}phenyl)urea]	187 nM	27 nM	< 27 nM		
O=C(Nc1ccccc1)Nc1ccc(-c2nc(N3CCOCC3)c3cnn(C4CCN(C(=O)c5ccccc5)CC4)c3n2)cc1 [Example 378, 1-{4-[1-(1-benzoylpiperidin-4-yl)-4-morpholin-4-yl-1H-pyrazolo[3,4-d]pyrimidin-6-yl]phenyl}-3-phenylurea]	16 nM	100 nM	27 nM		
COC(=O)Nc1ccc(-c2nc(N3CCOCC3)c3cnn(C4CCN(C(=O)N(C)C)CC4)c3n2)cc1 [Compound 808, methyl (4-{1-[1-(dimethylcarbamoyl)piperidin-4-yl]-4-morpholin-4-yl-1H-pyrazolo[3,4-d]pyrimidin-6-yl}phenyl)carbamate]	2620 nM	690 nM	430 nM		
O=C(Nc1ccc(-c2nc(N3CCOCC3)c3cnn(C4CCN(C(=O)c5cccnc5)CC4)c3n2)cc1)Nc1ccsc1 [Compound 658, 1-(4-{4-morpholin-4-yl-1-[1-(pyridin-3-ylcarbonyl)piperidin-4-yl]-1H-pyrazolo[3,4-d]pyrimidin-6-yl}phenyl)-3-(3-thienyl)urea]	18 nM			75 nM	40 nM
CCOC(=O)Nc1ccc(-c2nc(N3CCOCC3)c3cnn(C4CCN(Cc5ccccc5)CC4)c3n2)cc1 [Compound 207, ethyl {4-[1-(1-benzylpiperidin-4-yl)-4-morpholin-4-yl-1H-pyrazolo[3,4-d]pyrimidin-6-yl]phenyl}carbamate]	659 nM	5200 nM	3000 nM		
CNC(=O)Nc1ccc(-c2nc(N3CCOCC3)c3cnn(C4CCN(Cc5ccccc5O)CC4)c3n2)cc1 [Compound 644, 1-(4-{1-[1-(2-hydroxybenzyl)piperidin-4-yl]-4-morpholin-4-yl-1H-pyrazolo[3,4-d]pyrimidin-6-yl}phenyl)-3-methylurea]	36 nM			320 nM	60 nM
CNC(=O)Nc1ccc(-c2nc(N3CCOCC3)c3cnn(C4CCN(C(=O)COC)CC4)c3n2)cc1 [Example 474, 1-(4-{1-[1-(methoxyacetyl)piperidin-4-yl]-4-morpholin-4-yl-1H-pyrazolo[3,4-d]pyrimidin-6-yl}phenyl)-3-methylurea]	287 nM	1400 nM	1010 nM		
CNC(=O)Nc1ccc(-c2nc(N3CCOCC3)c3cnn(C4CCN(C(=O)Nc5cccnc5)CC4)c3n2)cc1 [Example 335, 4-(6-{4-[(methylcarbamoyl)amino]phenyl}-4-morpholin-4-yl-1H-pyrazolo[3,4-d]pyrimidin-1-yl)-N-pyridin-3-ylpiperidine-1-carboxamide]	30 nM	2500 nM	3000 nM		
CNC(=O)Nc1ccc(-c2nc(N3CCOCC3)c3cnn([C@H]4CCCN(C(=O)OC(C)(C)C)C4)c3n2)cc1 [Compound 872, tert-butyl (3S)-3-(6-{4-[(methylcarbamoyl)amino]phenyl}-4-morpholin-4-yl-1H-pyrazolo[3,4-d]pyrimidin-1-yl)piperidine-1-carboxylate]	169 nM	1000 nM	270 nM		
Fc1ccc(CN2CCC(n3ncc4c(N5CCOCC5)nc(-c5ccc6[nH]ccc6c5)nc43)CC2)cc1 [Example 55]	686 nM	3000 nM	2500 nM		
Clc1ccc(-c2nc(N3CCOCC3)c3cnn(C4CCN(Cc5ccccc5)CC4)c3n2)cn1 [Compound 156]	450 nM	35000 nM	3300 nM		
Cc1ncccc1C(=O)N1CCC(n2ncc3c(N4CCOCC4)nc(-c4ccc5[nH]ccc5c4)nc32)CC1 [Example 200, 6-(1H-indol-5-yl)-1-{1-[(2-methylpyridin-3-yl)carbonyl]piperidin-4-yl}-4-morpholin-4-yl-1H-pyrazolo[3,4-d]pyrimidine]	2390 nM	2000 nM	750 nM		
COC(=O)N1CCC(n2ncc3c(N4CCOCC4)nc(-c4ccc(NC(=O)OCCF)cc4)nc32)CC1 [Compound 865, methyl 4-[6-(4-{[(2-fluoroethoxy)carbonyl]amino}phenyl)-4-morpholin-4-yl-1H-pyrazolo[3,4-d]pyrimidin-1-yl]piperidine-1-carboxylate]	2950 nM	4100 nM	680 nM		
CC(C)OC(=O)N1CCC(n2ncc3c(N4CCOCC4)nc(-c4ccc(N)cc4)nc32)CC1 [Compound 830, isopropyl 4-[6-(4-aminophenyl)-4-morpholin-4-yl-1H-pyrazolo[3,4-d]pyrimidin-1-yl]piperidine-1-carboxylate]	12000 nM	16000 nM	1800 nM		
O=C(NCCF)Nc1ccc(-c2nc(N3CCOCC3)c3cnn(C4CCN(CCCCO)CC4)c3n2)cc1 [Compound 747, 1-(2-fluoroethyl)-3-(4-{1-[1-(4-hydroxybutyl)piperidin-4-yl]-4-morpholin-4-yl-1H-pyrazolo[3,4-d]pyrimidin-6-yl}phenyl)urea]	782 nM	6660 nM	3300 nM		
O=C(NCCF)Nc1ccc(-c2nc(N3CCOCC3)c3cnn(C4CCN(Cc5cccnc5)CC4)c3n2)cc1F [Example 374, 1-(2-fluoroethyl)-3-(2-fluoro-4-{4-morpholin-4-yl-1-[1-(pyridin-3-ylmethyl)piperidin-4-yl]-1H-pyrazolo[3,4-d]pyrimidin-6-yl}phenyl)urea]	619 nM	1300 nM	140 nM		
CCCNC(=O)Nc1ccc(-c2nc(N3CCOCC3)c3cnn(C4CCN(Cc5ccccc5)CC4)c3n2)cc1 [Compound 500, 1-{4-[1-(1-benzylpiperidin-4-yl)-4-morpholin-4-yl-1H-pyrazolo[3,4-d]pyrimidin-6-yl]phenyl}-3-propylurea]	341 nM	1500 nM	220 nM		
NCC(=O)Nc1ccc(-c2nc(N3CCOCC3)c3cn[nH]c3n2)cc1 [Compound 282, N-[4-(4-morpholin-4-yl-1H-pyrazolo[3,4-d]pyrimidin-6-yl)phenyl]glycinamide]	128 nM	11000 nM	9000 nM		
CC(=O)Nc1ccc(-c2nc(N3CCOCC3)c3cnn(C4CCN(Cc5ccccc5)CC4)c3n2)cc1[N+](=O)[O-] [Compound 184, N-{4-[1-(1-benzylpiperidin-4-yl)-4-morpholin-4-yl-1H-pyrazolo[3,4-d]pyrimidin-6-yl]-2-nitrophenyl}acetamide]	3080 nM	60000 nM	60000 nM		
CC(C)(C)OC(=O)N1CCC[C@H](n2ncc3c(N4CCOCC4)nc(-c4ccc(N)cc4)nc32)C1 [Compound 870, tert-butyl (3S)-3-[6-(4-aminophenyl)-4-morpholin-4-yl-1H-pyrazolo[3,4-d]pyrimidin-1-yl]piperidine-1-carboxylate]	549 nM	26000 nM	7600 nM		
CNC(=O)Nc1ccc(-c2nc(N3CCOCC3)c3cnn(C4CCN(Cc5cccnc5Cl)CC4)c3n2)cc1 [Compound 635, 1-[4-(1-{1-[(2-chloropyridin-3-yl)methyl]piperidin-4-yl}-4-morpholin-4-yl-1H-pyrazolo[3,4-d]pyrimidin-6-yl)phenyl]-3-methylurea]	90 nM			110 nM	45 nM
CCNC(=O)Nc1ccc(-c2nc(N3CCOCC3)c3cnn(C4CCN(C(=O)OC(C)(C)C)CC4)c3n2)cc1 [Compound 764, tert-butyl 4-(6-{4-[(ethylcarbamoyl)amino]phenyl}-4-morpholin-4-yl-1H-pyrazolo[3,4-d]pyrimidin-1-yl)piperidine-1-carboxylate]	738 nM	370 nM	115 nM		
Oc1cccc(-c2nc(N3CCOCC3)c3cnn(C4CCN(CC5CC5)CC4)c3n2)c1 [Example 13]	34 nM	1500 nM	270 nM		
COC(=O)N1CCC(n2ncc3c(N4CCOC(C)C4)nc(-c4ccc(NC(=O)Nc5cccnc5)cc4)nc32)CC1 (stereo not drawn) [Compound 846, methyl 4-[4-(2-methylmorpholin-4-yl)-6-{4-[(pyridin-3-ylcarbamoyl)amino]phenyl}-1H-pyrazolo[3,4-d]pyrimidin-1-yl]piperidine-1-carboxylate]	81 nM	500 nM	58 nM		
COc1ccc(CN2CCC(n3ncc4c(N5CCOCC5)nc(-c5cccc(O)c5)nc43)CC2)cc1O [Example 20]	21 nM	700 nM	130 nM		
Nc1ccc(-c2nc(N3CCOCC3)c3cnn(C4CCN(Cc5ccccc5)CC4)c3n2)cc1[N+](=O)[O-] [Compound 183, 4-[1-(1-benzylpiperidin-4-yl)-4-morpholin-4-yl-1H-pyrazolo[3,4-d]pyrimidin-6-yl]-2-nitroaniline]	1170 nM	13000 nM	11000 nM		

Reference: patent US20080234262A1 (Wyeth, priority 2007, published 2008)
